# Source: patent publication US11214578B2, “Urea/carbamates FAAH MAGL or dual FAAH/MAGL inhibitors and uses thereof” (Northeastern University, priority 2014, dated 2022)
# Assays:
# Type in all cases: biochemical
# [1] = target: T1, ΔTM rat FAAH (Rattus norvegicus, UniProt P97612); assay: Fluorescent assay protocol for ΔTM rat FAAH (AAMCA substrate); conditions: 15 min preincubation, read-out: IC50 rFAAH
# T1 construct: Preparation of Transmembrane Domain-Deleted Rat FAAH (ΔTM rFAAH); made in house; host or cells: E. coli
# T1 sequence (P97612 30-579 limits assumed): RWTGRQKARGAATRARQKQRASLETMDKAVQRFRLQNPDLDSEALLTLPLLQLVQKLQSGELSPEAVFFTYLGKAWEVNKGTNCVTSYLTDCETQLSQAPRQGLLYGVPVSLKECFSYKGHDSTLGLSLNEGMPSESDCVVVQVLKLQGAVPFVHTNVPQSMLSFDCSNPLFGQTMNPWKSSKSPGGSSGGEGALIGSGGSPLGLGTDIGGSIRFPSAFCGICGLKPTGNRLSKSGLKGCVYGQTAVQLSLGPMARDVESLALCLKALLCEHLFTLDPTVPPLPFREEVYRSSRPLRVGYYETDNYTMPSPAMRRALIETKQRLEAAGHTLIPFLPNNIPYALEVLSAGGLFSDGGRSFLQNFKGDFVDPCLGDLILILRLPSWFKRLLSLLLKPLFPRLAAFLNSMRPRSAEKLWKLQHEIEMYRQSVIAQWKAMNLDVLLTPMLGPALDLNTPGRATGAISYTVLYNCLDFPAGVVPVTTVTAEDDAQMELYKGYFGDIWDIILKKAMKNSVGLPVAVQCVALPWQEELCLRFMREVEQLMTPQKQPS
# Experimental: Procedure was followed as described for hMAGL, except that arachidonoyl-methyl coumarin amide (AAMCA) was used as fluorigenic substrate. […] For the screening assay, 3 concentrations (1 μM, 10 μM, and 100 μM) of test compounds, 15 μg of ΔTM rFAAH and assay buffer were pre-incubated for 15 min at 25° C. […] The fluorescence reading at the 3 hour time point (linear enzyme kinetics) was used to calculate percent inhibition based on control assays without inhibitor present. All FAAH assays were performed in triplicate for each inhibitor concentration, and IC50 values determined using Prizm software (GraphPad Software, Inc.).
# [2] = target: T2, Rat MAGL (rMAGL) (Rattus norvegicus, UniProt Q8R431); assay: Fluorescent assay protocol for rMAGL; conditions: recombinant rat MAGL, procedure as for hMAGL; read-out: IC50 rMAGL
# T2 construct: made in house; host or cells: E. coli
# T2 sequence (Q8R431 1-303): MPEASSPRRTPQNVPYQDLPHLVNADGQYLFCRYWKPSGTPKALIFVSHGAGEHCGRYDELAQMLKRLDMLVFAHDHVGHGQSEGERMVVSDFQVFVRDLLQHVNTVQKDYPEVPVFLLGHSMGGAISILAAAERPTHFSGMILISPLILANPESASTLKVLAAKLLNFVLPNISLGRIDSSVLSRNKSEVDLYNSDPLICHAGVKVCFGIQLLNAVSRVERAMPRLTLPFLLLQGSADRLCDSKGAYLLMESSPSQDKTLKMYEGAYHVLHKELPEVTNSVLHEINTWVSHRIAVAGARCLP
# Experimental: (§1) This medium throughput assay involved a 96-well plate format in which hMAGL activity was monitored by the hydrolysis of the substrate 7-hydroxy-6-methoxy-4-methylcoumarin ester (AHMMCE) to form the fluorescent product, coumarin. […] Upon the addition of AHMMCE, the reaction was incubated at 25° C. for 120 min; fluorescence readings were taken every 15 min at 360 nm/460 nm (λexcitation/λemission) using a Synergy HT Plate Reader (Bio-Tek, Winooski, Vt.). […] External standards were used to convert relative fluorescence units to the amount of 4-methylcoumarin formed. All MAGL assays were performed in triplicate for each inhibitor concentration, and IC50 values were calculated using Prizm software (GraphPad Software, Inc., San Diego, Calif.).
# Procedure was followed as described for hMAGL.
# [3] = target: T3, Human MAGL (hMAGL) (Homo sapiens, UniProt Q99685); assay: Fluorescent assay protocol for hMAGL (AHMMCE substrate); conditions: recombinant human MAGL, AHMMCE substrate, 15 min preincubation; read-out: IC50 hMAGL
# T3 construct: hexahistidine; made in house; host or cells: E. coli
# T3 sequence (Q99685 1-303): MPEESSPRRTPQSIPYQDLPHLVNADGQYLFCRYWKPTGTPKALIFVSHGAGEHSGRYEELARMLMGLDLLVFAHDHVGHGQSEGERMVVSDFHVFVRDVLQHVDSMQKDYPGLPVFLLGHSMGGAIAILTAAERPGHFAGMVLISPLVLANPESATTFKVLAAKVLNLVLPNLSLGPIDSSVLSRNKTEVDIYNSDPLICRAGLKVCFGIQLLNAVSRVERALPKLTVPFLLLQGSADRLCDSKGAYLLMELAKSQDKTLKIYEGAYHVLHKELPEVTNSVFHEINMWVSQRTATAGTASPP
# Experimental: as §1
# [4] = target: T4, Human FAAH (MBPΔTMhFAAH) (Homo sapiens, UniProt O00519); assay: Fluorescent assay protocol for hFAAH; conditions: human FAAH (MBP fusion, ΔTM), procedure as for rFAAH
# T4 construct: made in house; host or cells: E. coli (pMALcE4 vector)
# T4 sequence (O00519 30-579 limits assumed): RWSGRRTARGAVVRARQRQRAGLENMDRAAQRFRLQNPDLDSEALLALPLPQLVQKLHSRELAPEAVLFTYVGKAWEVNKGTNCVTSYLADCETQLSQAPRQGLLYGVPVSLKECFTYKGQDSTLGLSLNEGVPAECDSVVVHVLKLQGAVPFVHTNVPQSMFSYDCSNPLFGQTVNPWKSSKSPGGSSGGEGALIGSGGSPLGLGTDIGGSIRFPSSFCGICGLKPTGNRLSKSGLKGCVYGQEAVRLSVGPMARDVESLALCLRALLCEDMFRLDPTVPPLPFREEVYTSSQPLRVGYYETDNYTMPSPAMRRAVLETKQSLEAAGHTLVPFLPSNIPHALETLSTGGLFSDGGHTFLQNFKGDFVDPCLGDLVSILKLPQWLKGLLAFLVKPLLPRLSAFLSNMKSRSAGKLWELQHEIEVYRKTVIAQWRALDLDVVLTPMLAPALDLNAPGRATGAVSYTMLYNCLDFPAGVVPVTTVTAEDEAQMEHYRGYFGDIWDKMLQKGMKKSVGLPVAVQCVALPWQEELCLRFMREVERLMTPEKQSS
# Experimental: Human FAAH without putative transmembrane domain following maltose binding protein was expressed in E. coli cells using pMALcE4 vector Alapafuja et al J. Med. Chem. (2012) 55: 10074-89.
# Procedure was followed as described for hMAGL, except that arachidonoyl-methyl coumarin amide (AAMCA) was used as fluorigenic substrate. Compounds were diluted in 50:50 DMSO/assay buffer (50 mM HEPES, 1 mM EDTA, 0.1% BSA, pH 7.4) so as to have a final DMSO concentration below 8% in each reaction. For the screening assay, 3 concentrations (1 μM, 10 μM, and 100 μM) of test compounds, 15 μg of ΔTM rFAAH and assay buffer were pre-incubated for 15 min at 25° C. AAMCA (20 μM, 2×Km) was added prior to incubation at 25° C. and kinetic fluorescence reading every 20 minutes (λex=360/λem=460) for 4 hours on a BioTek Synergy HT Microplate Reader (BioTek Instruments, Winooski, Vt.). The fluorescence reading at the 3 hour time point (linear enzyme kinetics) was used to calculate percent inhibition based on control assays without inhibitor present. All FAAH assays were performed in triplicate for each inhibitor concentration, and IC50 values determined using Prizm software (GraphPad Software, Inc.).
# Procedure was followed as described for rFAAH.
IC50 [1],IC50 [2],IC50 [3],IC50 [4],Structure (SMILES)
10 to 100 nM,> 1000 nM,> 1000 nM,10 to 100 nM,"N#Cc1cccc(-c2cccc(NC(=O)N3CCN(Cc4ccc5ccccc5n4)CC3)c2)c1 [Example 13, N-(3′-cyano-[1,1′-biphenyl]-3-yl)-4-(quinolin-2-ylmethyl)piperazine-1-carboxamide]"
> 1000 nM,> 1000 nM,> 1000 nM,> 1000 nM,"O=C(Nc1cccc(Oc2ccccc2)c1)N1CCN(Cc2ccc3ccccc3n2)CC1 [Example 14, N-(3-phenoxyphenyl)-4-(quinolin-2-ylmethyl)piperazine-1-carboxamide]"
> 1000 nM,> 1000 nM,> 1000 nM,> 1000 nM,"N#Cc1cccc(-c2cccc(NC(=O)N3CCC(c4ccccc4)CC3)c2)c1 [Example 15, N-(3′-cyano-[1,1′-biphenyl]-3-yl)-4-phenylpiperidine-1-carboxamide]"
> 1000 nM,> 1000 nM,> 1000 nM,> 1000 nM,"N#Cc1cccc(-c2cncc(NC(=O)N3CCC(c4ccccc4)CC3)c2)c1 [Example 16, N-(5-(3-cyanophenyl)pyridin-3-yl)-4-phenylpiperidine-1-carboxamide]"
10 to 100 nM,> 1000 nM,> 1000 nM,10 to 100 nM,"N#Cc1cccc(-c2cccc(NC(=O)N3CCN(Cc4cccc(-c5ccccc5)c4)CC3)c2)c1 [Example 17, 4-([1,1′-biphenyl]-3-ylmethyl)-N-(3′-cyano-[1,1′-biphenyl]-3-yl)piperazine-1-carboxamide]"
10 to 100 nM,> 1000 nM,> 1000 nM,110 to 1000 nM,"NC(=O)c1cccc(-c2cccc(NC(=O)N3CCN(Cc4cccc(Oc5ccccc5)c4)CC3)c2)c1 [Example 18, N-(3′-carbamoyl-[1,1′-biphenyl]-3-yl)-4-(3-phenoxybenzyl)piperazine-1-carboxamide]"
110 to 1000 nM,> 1000 nM,> 1000 nM,110 to 1000 nM,"C[C@H]1CN(C(=O)Nc2cccc(-c3cccc(C#N)c3)c2)CCN1Cc1ccc2ccccc2n1 [Example 19, (S)—N-(3′-cyano-[1,1′-biphenyl]-3-yl)-3-methyl-4-(quinolin-2-ylmethyl)piperazine-1-carboxamide]"
110 to 1000 nM,> 1000 nM,> 1000 nM,110 to 1000 nM,"N#Cc1cccc(-c2cccc(NC(=O)N3CCC4(CC3)CC(=O)c3ccccc3O4)c2)c1 [Example 20, N-(3′-cyano-[1,1′-biphenyl]-3-yl)-4-oxospiro[chromane-2,4′-piperidine]-1′-carboxamide]"
110 to 1000 nM,> 1000 nM,> 1000 nM,110 to 1000 nM,"C[C@H]1CN(C(=O)n2cnc(-c3ccccc3)c2)CCN1Cc1cccc(-c2ccccc2)c1 [Example 21, (S)-(4-([1,1′-biphenyl]-3-ylmethyl)-3-methylpiperazin-1-yl)(4-phenyl-1H-imidazol-1-yl)methanone]"
110 to 1000 nM,> 1000 nM,> 1000 nM,110 to 1000 nM,"C[C@H]1CN(Cc2cccc(Oc3ccccc3)c2)CCN1C(=O)n1cnc(Br)c1 [Example 22, (S)-(4-bromo-1H-imidazol-1-yl)(2-methyl-4-(3-phenoxybenzyl)piperazin-1-yl)methanone]"
10 to 100 nM,> 1000 nM,> 1000 nM,110 to 1000 nM,"CC1CN(c2ccccc2)CCN1C(=O)n1cnc(-c2ccccc2)c1 (stereo not shown) [Example 23, (2-methyl-4-phenylpiperazin-1-yl)(4-phenyl-1H-imidazol-1-yl)methanone]"
10 to 100 nM,> 1000 nM,> 1000 nM,110 to 1000 nM,"CC1CN(C(=O)n2cnc(-c3ccccc3)c2)CCN1c1ccccc1 (stereo not shown) [Example 24, (3-methyl-4-phenylpiperazin-1-yl)(4-phenyl-1H-imidazol-1-yl)methanone]"
10 to 100 nM,> 1000 nM,> 1000 nM,10 to 100 nM,"Cc1ccc(N2CCN(C(=O)n3cnc(-c4ccccc4)c3)CC2C)cc1 (stereo not shown) [Example 25, (3-methyl-4-(p-tolyl)piperazin-1-yl)(4-phenyl-1H-imidazol-1-yl)methanone]"
10 to 100 nM,> 1000 nM,> 1000 nM,110 to 1000 nM,"CC1CN(C(=O)n2cnc(-c3ccccc3)c2)CCN1c1cccc(OCc2ccccc2)c1 (stereo not shown) [Example 26, (4-(3-(benzyloxy)phenyl)-3-methylpiperazin-1-yl)(4-phenyl-1H-imidazol-1-yl)methanone]"
110 to 1000 nM,> 1000 nM,> 1000 nM,110 to 1000 nM,"CC1CN(C(=O)n2cnc(-c3ccccc3)c2)CCN1c1cccc(O)c1 (stereo not shown) [Example 27, (4-(3-hydroxyphenyl)-3-methylpiperazin-1-yl)(4-phenyl-1H-imidazol-1-yl)methanone]"
110 to 1000 nM,> 1000 nM,> 1000 nM,110 to 1000 nM,"O=C(N1CCN(C(c2ccc(F)cc2)c2ccc(F)cc2)CC1)n1cnc(Br)c1 [Example 28, (4-(bis(4-fluorophenyl)methyl)piperazin-1-yl)(4-bromo-1H-imidazol-1-yl)methanone]"
